# Publication doi:10.1101/2020.06.19.161828v1 (biorxiv, 2020)
# Molecular target: T1, LmME (Leishmania major, UniProt Q4QAQ6)
# T1 sequence (Q4QAQ6 1-573): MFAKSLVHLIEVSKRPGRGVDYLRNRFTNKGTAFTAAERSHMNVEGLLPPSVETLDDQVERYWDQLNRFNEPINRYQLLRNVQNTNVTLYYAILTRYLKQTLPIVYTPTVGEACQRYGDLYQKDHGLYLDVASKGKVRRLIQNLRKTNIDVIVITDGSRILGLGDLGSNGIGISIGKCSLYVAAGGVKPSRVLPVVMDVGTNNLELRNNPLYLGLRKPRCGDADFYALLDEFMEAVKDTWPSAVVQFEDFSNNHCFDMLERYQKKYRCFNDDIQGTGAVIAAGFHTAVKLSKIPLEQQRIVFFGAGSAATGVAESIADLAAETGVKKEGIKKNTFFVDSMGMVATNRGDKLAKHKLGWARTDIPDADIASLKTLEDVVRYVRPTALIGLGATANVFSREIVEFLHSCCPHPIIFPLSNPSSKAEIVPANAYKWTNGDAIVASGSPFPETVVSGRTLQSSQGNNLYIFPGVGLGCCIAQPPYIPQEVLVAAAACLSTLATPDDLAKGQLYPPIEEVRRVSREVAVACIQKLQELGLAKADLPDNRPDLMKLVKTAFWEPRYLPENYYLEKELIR
# Assay: spectrophotometric NADPH assay at […] nm, malate decarboxylation
# Type: biochemical
smiles,measurement,value
c1ccc(-c2nnc3sc(Cc4ccc5c(c4)CCCC5)nn23)nc1 [ATR7-010],IC50,1590 nM
